# According to patent US20240240126A1, “Microfluidic Barcode-Like Cell Sensor For Microscope-Free Quantitative Detection Of Small Amount Of Cells” (Hong Kong Baptist University, priority 2021, published 2024):
# How the values were obtained:
# Isolate 1 = assay: Broth microdilution AST of drinking water isolate; assay type: cell-based, Staphylococcus epidermidis; design: key: R stands for resistant; conditions: Isolate 1 from drinking water samples
# Procedure: (§1) All tested samples were collected between June 2019 to November 2019 according to the guidelines from ISO 18593:2018 Microbiology of the food chain—Horizontal methods for surface sampling. Also, all of the samples were collected from the drinking fountains in government venues and university facilities, at ten different locations. As said, the surface of the outlet for the drinking fountains was tested by swabbing. In simple words, the surfaces of the drinking fountain's outlet were rubbed by a single use sterilize cotton swab and swished into the Lysogeny broth (LB) broth solution for 1 minute to prepare the sample solutions. Collected samples were kept at 4° C. during the transportation and enriched for 12-14 hours under 37° C. After the enrichment for bacteria, the sample suspensions were spread and streaked onto the LB agar for further bacterial isolation and AST uses. […] If an ID is needed, dilution plating can be used. Besides, antifungals and algal inhibitors can also be added into these samples to against and inhibit the growth of fungi, yeast, and algae.
# (§2) All tested samples were collected from drinking fountains at ten different locations in various government venues and university facilities. Sample containers were kept sterile before use in sample collection; the collected samples were kept at 4° C. and analyzed within 24 hours of collection. Sample collection was conducted 3 times for each sampling site and the antimicrobial susceptibility of each sample was tested 3 times. (FIG. 5) Bacterial identification for the real samples was made through the use of Matrix-Assisted Laser Desorption Ionization Time of Flight Imaging Mass Spectrometry (MALDI-TOF IMS). 1 uL of the sample was pipetted onto an Indium tin oxide (ITO) coated glass slide and allowed to dry on a hotplate; the ITO slide with bacteria was then analyzed by MALDI-TOF IMS immediately following matrix application. (FIG. 6, Table 2)
# (§3) The broth microdilution (BMD) testing of the samples was performed exactly the same according to the approved standard from CLSI and the procedures described in Nature Protocol. To perform the BMD test, both LB broth medium and the antibiotics were added into the 96-wells microplate. By using a two-fold dilution, a concentration gradient of the antibiotic is generated from 128 μg/mL to 0.125 μg/mL. […] To assess the MIC values for the samples, the microplates were examined visually and the lowest concentration of the antibiotic which prevents visible growth of the bacteria was recorded as the MIC value of that sample. […]
# Isolate 5 = assay: Broth microdilution AST of drinking water isolate; assay type: cell-based, Staphylococcus epidermidis; design: key: R stands for resistant; conditions: Isolate 5 from drinking water samples
# Procedure: as §1, §2, §3
# Isolate 2 = assay: Broth microdilution AST of drinking water isolate; assay type: cell-based, Citrobacter youngae; design: key: R stands for resistant; conditions: Isolate 2 from drinking water samples
# Procedure: as §1, §2
# (§4) The broth microdilution (BMD) testing of the samples was performed exactly the same according to the approved standard from CLSI and the procedures described in Nature Protocol. To perform the BMD test, both LB broth medium and the antibiotics were added into the 96-wells microplate. By using a two-fold dilution, a concentration gradient of the antibiotic is generated from 128 μg/mL to 0.125 μg/mL. The bacteria isolates identified inside the samples have been enriched under 37° C. for 8-12 hrs in order to achieve 5×10^6 CFU/mL before the test, 10 uL of the bacterial suspension was inoculated into the broth to achieve a final concentration of bacteria in 5×10^5 CFU/mL. The inoculated microplates were incubated at 37° C. for 16-20 hrs for further inspection. To assess the MIC values for the samples, the microplates were examined visually and the lowest concentration of the antibiotic which prevents visible growth of the bacteria was recorded as the MIC value of that sample. Meanwhile, Mueller Hinton broth was also used to perform the BMD for cross checking purpose; both of the AST results are consistence with the MIC quality control range recommended by CLSI.
# (§5) Based on the findings in the present disclosure, multiple bacterial species have been recognized in the testing samples, including bacterial species that have the potential to form biofilm and colonize on the surface of the water dispenser (Table 2). Traditional broth microdilution AST was also performed to verify the AMR assessment results of the present sensor according to the approved standard from CLSI (FIGS. 27A and 27B, Table 4). […] As AMR microbes can exist in the environment all around us, close enough to come into contact with in daily life, they may pose a significant threat to the effective treatment of bacterial infections in the near future if no action is taken. […]
# Isolate 6 = assay: Broth microdilution AST of drinking water isolate; assay type: cell-based, Citrobacter youngae; design: key: R stands for resistant; conditions: Isolate 6 from drinking water samples
# Procedure: as §1, §2, §4, §5
# Isolate 7 = assay: Broth microdilution AST of drinking water isolate; assay type: cell-based, Citrobacter youngae; design: key: R stands for resistant; conditions: Isolate 7 from drinking water samples
# Procedure: as §1, §2, §4, §5
# Isolate 3 = assay: Broth microdilution AST of drinking water isolate; assay type: cell-based, Staphylococcus capitis; design: key: R stands for resistant; conditions: Isolate 3 from drinking water samples
# Procedure: as §1, §2, §4, §5
# Isolate 4 = assay: Broth microdilution AST of drinking water isolate; assay type: cell-based, Staphylococcus capitis; design: key: R stands for resistant; conditions: Isolate 4 from drinking water samples
# Procedure: as §1, §2, §4, §5
# Isolate 8 = assay: Broth microdilution AST of drinking water isolate; assay type: cell-based, Staphylococcus capitis; design: key: R stands for resistant; conditions: Isolate 8 from drinking water samples
# Procedure: as §1, §2, §4, §5
# mixed bacteria sample = assay: Broth microdilution AST of mixed bacteria sample; assay type: cell-based
# Procedure: as §4
# (§6) According to the AST results of the present disclosure, all those identified isolates (isolates 1-8) have shown susceptibility to Gentamicin where all of them are resistant to Ampicillin at the same time. […]
# [1] = tested on: identified isolates (isolates 1-8); assay: AST of the identified drinking water isolates, overall statement; assay type: cell-based; conditions: all identified isolates 1-8
# Procedure: as §4, §6
# E. coli [2] = conditions: CLSI reference range; cited from earlier work
# S. aureus [3] = conditions: CLSI reference range; cited from earlier work
# E. coli [4] = assay: AST with the present barcode cell sensor (PP microfluidic AST chip); assay type: cell-based, Escherichia coli (ATCC 25922)
# Procedure: (§7) To conduct an AST on the PP-based AST chip, bacteria were pre-activated inside an incubator for 15 minutes at 37° C. before use. At the beginning of a test, the bacteria are injected through Inlet 3; the injection of the bacteria was monitored under the fluorescence microscope (FIG. 24A). After the bacteria were inoculated into the cultivation chambers, antibiotic-doped media and media alone are injected into inlet 1 and inlet 2 at a rate of 1 μL/minute, respectively (FIG. 24B). The AST chip was then incubated on a thermostat platform at 37° C. for 2 hours. To assess AMR, the bacteria inside the culture chambers of the PP AST chip were flushed into the barcode cell sensor at a rate of 1 μL/minute. […] For comparison, AST was also performed using the traditional broth microdilution method as shown in FIG. 27; the MIC values of the bacteria were assessed as the lowest concentration of antibiotics with no visible growth of bacteria.
# As said, the bacteria samples have been flushed into the “barcode” cell sensor after 2 hours incubation, the accumulated bacteria bars with different lengths will be formed. […] Thus, the MIC value of the samples can be assessed by looking at the point (in a specific concentration of a given antibiotic) of the bacterial growth with significant differences using the comparison of the log [slope] values. […]
# S. aureus [5] = assay: as above; assay type: cell-based, Staphylococcus aureus (ATCC 29213)
# Procedure: To conduct an AST on the PP-based AST chip, bacteria were pre-activated inside an incubator for 15 minutes at 37° C. before use. At the beginning of a test, the bacteria are injected through Inlet 3; the injection of the bacteria was monitored under the fluorescence microscope (FIG. 24A). After the bacteria were inoculated into the cultivation chambers, antibiotic-doped media and media alone are injected into inlet 1 and inlet 2 at a rate of 1 μL/minute, respectively (FIG. 24B). The AST chip was then incubated on a thermostat platform at 37° C. for 2 hours. To assess AMR, the bacteria inside the culture chambers of the PP AST chip were flushed into the barcode cell sensor at a rate of 1 μL/minute. Gram staining agent was used during the flushing process to make bacteria inside the barcode cell sensor visible be captured by a cell phone camera. For comparison, AST was also performed using the traditional broth microdilution method as shown in FIG. 27; the MIC values of the bacteria were assessed as the lowest concentration of antibiotics with no visible growth of bacteria.
# E. coli [6] = assay: Broth microdilution AST; assay type: cell-based, Escherichia coli (ATCC 25922)
# Procedure: as §7
# (§8) The broth microdilution (BMD) testing of the samples was performed exactly the same according to the approved standard from CLSI and the procedures described in Nature Protocol. […] To assess the MIC values for the samples, the microplates were examined visually and the lowest concentration of the antibiotic which prevents visible growth of the bacteria was recorded as the MIC value of that sample.
# S. aureus [7] = assay: Broth microdilution AST; assay type: cell-based, Staphylococcus aureus (ATCC 29213)
# Procedure: as §7, §8
Compound,AST result (MIC) (Isolate 1),AST result (MIC) (Isolate 5),AST result (MIC) (Isolate 2),AST result (MIC) (Isolate 6),AST result (MIC) (Isolate 7),AST result (MIC) (Isolate 3),AST result (MIC) (Isolate 4),AST result (MIC) (Isolate 8),AST result in words (mixed bacteria sample; FIG. 27B),AST result in words (susceptibility / resistance) [1],MIC-CLSI (E. coli [2]),MIC-CLSI (S. aureus [3]) [µg/mL],"MIC-""barcode"" Chip (E. coli [4])",MIC (S. aureus [5]; Staphylococcus aureus) [µg/mL],MIC-Broth Microdilution (E. coli [6]),MIC (S. aureus [7]; Staphylococcus aureus) [µg/mL],"MIC-""barcode"" Chip (S. aureus [5]) [µg/mL]",MIC-Broth Microdilution (S. aureus [7]) [µg/mL],MIC value (mixed bacteria sample; FIG. 27A) [µg/mL]
CC1(C)S[C@@H]2[C@H](NC(=O)[C@H](N)c3ccccc3)C(=O)N2[C@H]1C(=O)O [Ampicillin],R,R,R,R,R,R,R,R,resistance,resistant,2 to 8 µg/mL,0.5 to 2,,,,,,,
"CC[C@H]1OC(=O)[C@H](C)[C@@H](O[C@H]2C[C@@](C)(OC)[C@@H](O)[C@H](C)O2)[C@H](C)[C@@H](O[C@@H]2O[C@H](C)C[C@H](N(C)C)[C@H]2O)[C@](C)(O)C[C@@H](C)C(=O)[C@H](C)[C@@H](O)[C@]1(C)O [Erythromycin, erythromycin]",,,,,,,,,,,Resistant,0.25 to 1,Resistant,0.4 to 0.6,Resistant,0.25 to 1,,,
Gentamicin,4 µg/mL,4 µg/mL,16 µg/mL,2 to 4 µg/mL,16 to 32 µg/mL,16 µg/mL,16 to 32 µg/mL,16 to 32 µg/mL,,susceptibility,0.25 to 1 µg/mL,0.12 to 1,,,0.25 to 0.5 µg/mL,,0.25 to 0.5,0.25 to 0.5,4 to 8
